Measurements as given in ChEMBL document CHEMBL1201862, “PubChem BioAssay data set” (2004).
Activity calls are given as the source filed them.

How the values were obtained:
[1] = molecular target: T1, G-protein coupled receptor 55 (Homo sapiens, UniProt Q9Y2T6); test: GPR55 antagonists blocking LPI-driven arrestin recruitment, primary screen, imaging, U2OS, beta-arrestin-GFP, LPI agonist (AID 2013); assay type: functional;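 note: antagonist potency measured as reduced agonist-driven arrestin aggregation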
T1 sequence (Q9Y2T6 whole entry): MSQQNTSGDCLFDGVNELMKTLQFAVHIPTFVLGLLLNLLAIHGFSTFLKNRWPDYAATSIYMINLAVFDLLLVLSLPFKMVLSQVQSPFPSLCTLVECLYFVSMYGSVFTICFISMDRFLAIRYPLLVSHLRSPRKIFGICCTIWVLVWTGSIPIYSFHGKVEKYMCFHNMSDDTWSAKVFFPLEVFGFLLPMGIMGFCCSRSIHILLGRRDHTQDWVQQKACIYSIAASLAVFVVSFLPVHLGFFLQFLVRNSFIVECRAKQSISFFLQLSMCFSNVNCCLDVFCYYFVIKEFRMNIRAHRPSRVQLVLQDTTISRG

[2] = molecular target: T1, G-protein coupled receptor 55; test: GPR55 agonists via beta-arrestin recruitment, primary screen, imaging, U2OS cells, beta-arrestin-GFP redistribution (AID 1961); assay type: functional
[3] = molecular target: Disintegrin and metalloproteinase domain-containing protein 17 (Homo sapiens, UniProt P78536); test: exosite inhibitors of ADAM17, dose response, biochemical (AID 743260)
Chain of Disintegrin and metalloproteinase domain-containing protein 17 (P78536 whole entry, the tested form may be a part): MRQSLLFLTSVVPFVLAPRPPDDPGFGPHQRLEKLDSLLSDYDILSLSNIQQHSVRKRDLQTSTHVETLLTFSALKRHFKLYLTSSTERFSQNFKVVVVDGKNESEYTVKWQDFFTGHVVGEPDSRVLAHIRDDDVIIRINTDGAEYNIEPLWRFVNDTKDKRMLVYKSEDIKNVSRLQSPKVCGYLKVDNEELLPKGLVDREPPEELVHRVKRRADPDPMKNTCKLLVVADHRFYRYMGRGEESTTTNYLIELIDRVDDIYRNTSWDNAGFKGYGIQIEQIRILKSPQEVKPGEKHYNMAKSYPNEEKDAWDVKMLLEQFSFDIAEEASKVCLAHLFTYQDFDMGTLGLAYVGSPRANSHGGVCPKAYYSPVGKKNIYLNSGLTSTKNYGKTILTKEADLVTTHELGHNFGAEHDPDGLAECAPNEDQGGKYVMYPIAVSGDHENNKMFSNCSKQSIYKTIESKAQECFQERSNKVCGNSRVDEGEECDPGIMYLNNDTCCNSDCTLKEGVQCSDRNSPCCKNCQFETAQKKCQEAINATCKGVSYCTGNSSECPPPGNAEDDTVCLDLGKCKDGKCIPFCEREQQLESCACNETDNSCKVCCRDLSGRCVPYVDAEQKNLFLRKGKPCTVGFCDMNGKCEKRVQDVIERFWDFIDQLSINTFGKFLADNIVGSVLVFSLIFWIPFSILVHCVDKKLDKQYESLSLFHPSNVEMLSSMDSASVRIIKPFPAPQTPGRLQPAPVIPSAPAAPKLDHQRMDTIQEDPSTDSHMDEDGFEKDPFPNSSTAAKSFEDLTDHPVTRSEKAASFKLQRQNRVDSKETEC

[4] = ADAM10 protease inhibitors, dose response, selectivity assay for ADAM17 exosite inhibitor project, biochemical, FRET peptide substrate, recombinant human ADAM10 (AID 743259);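 note: ADAM10 enzyme cleaving a FRET peptide substrate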
[5] = molecular target: 72 kDa type IV collagenase (Homo sapiens, UniProt P08253); test: Dose Response validation of uHTS RPN11 inhibitor hits using a MMP-2 Fluorescence assay.; assay type: functional
Chain of 72 kDa type IV collagenase (P08253 whole entry): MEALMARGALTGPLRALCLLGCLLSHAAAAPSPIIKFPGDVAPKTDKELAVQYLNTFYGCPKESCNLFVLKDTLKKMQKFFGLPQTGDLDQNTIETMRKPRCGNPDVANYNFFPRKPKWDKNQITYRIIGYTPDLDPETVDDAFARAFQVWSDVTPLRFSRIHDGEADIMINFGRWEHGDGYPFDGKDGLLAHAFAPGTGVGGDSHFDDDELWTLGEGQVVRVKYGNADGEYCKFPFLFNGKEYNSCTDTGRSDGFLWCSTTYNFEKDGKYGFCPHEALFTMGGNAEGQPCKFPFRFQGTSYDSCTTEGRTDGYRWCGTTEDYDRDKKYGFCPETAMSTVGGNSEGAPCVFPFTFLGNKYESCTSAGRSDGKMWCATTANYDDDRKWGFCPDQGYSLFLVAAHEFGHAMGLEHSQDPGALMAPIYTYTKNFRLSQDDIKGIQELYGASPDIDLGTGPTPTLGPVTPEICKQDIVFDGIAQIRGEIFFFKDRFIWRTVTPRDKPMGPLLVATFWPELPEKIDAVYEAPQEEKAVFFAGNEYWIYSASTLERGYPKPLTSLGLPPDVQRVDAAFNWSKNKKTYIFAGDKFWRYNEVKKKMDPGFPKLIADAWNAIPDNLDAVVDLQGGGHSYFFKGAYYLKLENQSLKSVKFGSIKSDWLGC

[6] = molecular target: 26S proteasome non-ATPase regulatory subunit 14 (Homo sapiens, UniProt O00487); test: inhibition of proteasome subunit RPN11 – biochemical, fluorescence polarization, uHTS hits, confirmation (AID 602368); assay type: functional
Chain of 26S proteasome non-ATPase regulatory subunit 14 (O00487 whole entry): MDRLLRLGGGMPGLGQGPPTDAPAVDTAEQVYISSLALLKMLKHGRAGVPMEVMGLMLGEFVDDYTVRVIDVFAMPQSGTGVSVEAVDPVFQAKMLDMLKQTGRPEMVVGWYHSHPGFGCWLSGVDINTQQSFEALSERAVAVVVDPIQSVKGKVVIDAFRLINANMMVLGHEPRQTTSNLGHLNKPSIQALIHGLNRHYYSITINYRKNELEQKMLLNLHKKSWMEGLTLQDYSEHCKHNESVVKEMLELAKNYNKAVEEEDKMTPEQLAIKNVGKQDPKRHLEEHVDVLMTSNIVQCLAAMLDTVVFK

Prothrombin = Prothrombin (Bos taurus, UniProt P00735); test: thrombin inhibition, dose response, biochemical, fluorescence polarization, uHTS hits (AID 602369); assay type: functional
[7] = molecular target: T2, Calpain-2 catalytic subunit (Sus scrofa, UniProt P43367); test: pig calpain II inhibitor potency, dose response, biochemical, fluorogenic peptide substrate (AID 1420); assay type: functional
T2 sequence (P43367 whole entry): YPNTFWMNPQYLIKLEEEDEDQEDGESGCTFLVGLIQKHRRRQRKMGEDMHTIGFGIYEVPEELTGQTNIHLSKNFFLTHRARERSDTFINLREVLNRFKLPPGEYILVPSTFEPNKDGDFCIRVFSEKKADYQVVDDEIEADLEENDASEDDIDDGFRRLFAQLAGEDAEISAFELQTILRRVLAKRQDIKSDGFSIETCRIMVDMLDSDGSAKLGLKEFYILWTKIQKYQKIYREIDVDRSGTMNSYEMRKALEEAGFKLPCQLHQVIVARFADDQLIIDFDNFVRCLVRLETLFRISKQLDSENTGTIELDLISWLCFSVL

[8] = molecular target: T3, Sentrin-specific protease 1 (Homo sapiens, UniProt Q9P0U3); test: potency of human SENP1 inhibitors, dose response, biochemical, kinetic FRET (AID 651697); assay type: functional; settings: read-out: IC50_Mean
T3 sequence (Q9P0U3 whole entry): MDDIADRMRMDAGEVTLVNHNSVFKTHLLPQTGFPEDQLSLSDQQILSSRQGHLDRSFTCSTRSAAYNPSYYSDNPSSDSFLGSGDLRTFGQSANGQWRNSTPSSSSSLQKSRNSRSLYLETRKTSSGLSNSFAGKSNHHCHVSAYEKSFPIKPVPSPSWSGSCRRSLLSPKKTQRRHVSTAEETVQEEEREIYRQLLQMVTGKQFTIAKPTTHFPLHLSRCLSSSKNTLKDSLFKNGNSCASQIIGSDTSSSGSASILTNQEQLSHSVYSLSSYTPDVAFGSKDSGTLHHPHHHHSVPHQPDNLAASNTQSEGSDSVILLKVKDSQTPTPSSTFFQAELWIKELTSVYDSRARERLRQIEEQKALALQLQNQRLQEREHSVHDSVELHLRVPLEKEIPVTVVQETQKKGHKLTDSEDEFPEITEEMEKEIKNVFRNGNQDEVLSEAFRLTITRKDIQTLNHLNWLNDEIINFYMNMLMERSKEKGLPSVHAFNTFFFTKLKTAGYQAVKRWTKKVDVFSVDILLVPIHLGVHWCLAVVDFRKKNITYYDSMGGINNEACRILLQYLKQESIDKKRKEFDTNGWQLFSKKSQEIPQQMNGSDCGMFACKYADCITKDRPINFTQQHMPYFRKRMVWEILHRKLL

[9] = molecular target: T3, Sentrin-specific protease 1; test: Dose response confirmation of small molecule inhibitors of the catalytic domain of the SUMO protease, SENP1 in a FRET assay.; assay type: functional; settings: read-out: IC50_Mean
[10] = cytotoxicity toward NIH3T3 fibroblasts, dose response, counter-screen, cell-based, ATP luminescence, mouse fibroblasts (AID 2010); assay type: functional;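 note: cells exposed to compound for about 90 hours before reading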
[11] = molecular target: T4, Ubiquitin-conjugating enzyme E2 N (Homo sapiens, UniProt P61088); assay type: functional;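 note: Dose-response confirmation in a TR-FRET assay detecting UBC13-driven polyubiquitin chain formation, inhibition measured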
T4 sequence (P61088 whole entry): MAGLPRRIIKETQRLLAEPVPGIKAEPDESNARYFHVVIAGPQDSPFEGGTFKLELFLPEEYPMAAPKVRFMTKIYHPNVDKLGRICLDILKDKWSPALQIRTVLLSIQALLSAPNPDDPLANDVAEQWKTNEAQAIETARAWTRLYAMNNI

cells = assay type: functional
[12] = HepG2 cell cytotoxicity, dose response, cytotoxicity control, ATP luminescence, cherry-pick, activator set 2 (AID 1053143); assay type: functional, cell-based
[13] = inhibitors of intracellular T. cruzi replication, confirmation, NIH3T3 host cells, beta-gal luminescence (AID 2044); assay type: functional, cell-based;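 note: intracellular parasites grown in NIH/3T3 mouse fibroblasts as host cells; luminescent beta-galactosidase reporter signal from transgenic T. cruzi replicating inside host cells; inhibitors lower the luminescence signal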
[14] = molecular target: FAD-linked sulfhydryl oxidase ALR (Homo sapiens, UniProt P55789); test: inhibitors of human ALR sulfhydryl oxidase, dose response, biochemical, H2O2 detection, luminescence, cherry-pick (AID 493248)
Chain of FAD-linked sulfhydryl oxidase ALR (P55789 whole entry): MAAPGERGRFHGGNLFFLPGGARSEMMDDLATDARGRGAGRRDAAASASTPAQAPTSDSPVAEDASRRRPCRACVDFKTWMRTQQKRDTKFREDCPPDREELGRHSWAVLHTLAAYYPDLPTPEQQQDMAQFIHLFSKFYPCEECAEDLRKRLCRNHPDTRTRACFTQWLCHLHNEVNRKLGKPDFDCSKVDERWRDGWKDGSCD

INS1 = test: beta cell apoptosis inhibitors, cytokine rescue, dose response, luminescence, retest (AID 449756); assay type: functional, cell-based; settings: Rattus norvegicus, INS1;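 note: cell death triggered by IL-1 beta plus TNF-alpha plus IFN-gamma mixture; protective hits raise ATP signal compared with cytokine alone wells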
[15] = THP-1 cell cytotoxicity, dose response, cytotoxicity control for non-replicating M. tuberculosis project (AID 489025); assay type: functional
[16] = HepG2 cell cytotoxicity, dose response, cytotoxicity control for non-replicating M. tuberculosis project (AID 489018); assay type: functional; settings: Mycobacterium tuberculosis
[17] = Vero E6 cell cytotoxicity, dose response, cytotoxicity control for non-replicating M. tuberculosis project, secondary assay (AID 492998); assay type: functional, VeroE6; settings: Vero C1008
Aminopeptidase N = molecular target: T5, Aminopeptidase N (Plasmodium falciparum FcB1/Columbia, UniProt O96935); test: P. falciparum M1AAP inhibitors, biochemical, fluorogenic H-Leu-NHMec substrate, 1536-well (AID 1445); set-up: species or system Plasmodium falciparum 3D7, 3D7
T5 sequence (O96935 whole entry): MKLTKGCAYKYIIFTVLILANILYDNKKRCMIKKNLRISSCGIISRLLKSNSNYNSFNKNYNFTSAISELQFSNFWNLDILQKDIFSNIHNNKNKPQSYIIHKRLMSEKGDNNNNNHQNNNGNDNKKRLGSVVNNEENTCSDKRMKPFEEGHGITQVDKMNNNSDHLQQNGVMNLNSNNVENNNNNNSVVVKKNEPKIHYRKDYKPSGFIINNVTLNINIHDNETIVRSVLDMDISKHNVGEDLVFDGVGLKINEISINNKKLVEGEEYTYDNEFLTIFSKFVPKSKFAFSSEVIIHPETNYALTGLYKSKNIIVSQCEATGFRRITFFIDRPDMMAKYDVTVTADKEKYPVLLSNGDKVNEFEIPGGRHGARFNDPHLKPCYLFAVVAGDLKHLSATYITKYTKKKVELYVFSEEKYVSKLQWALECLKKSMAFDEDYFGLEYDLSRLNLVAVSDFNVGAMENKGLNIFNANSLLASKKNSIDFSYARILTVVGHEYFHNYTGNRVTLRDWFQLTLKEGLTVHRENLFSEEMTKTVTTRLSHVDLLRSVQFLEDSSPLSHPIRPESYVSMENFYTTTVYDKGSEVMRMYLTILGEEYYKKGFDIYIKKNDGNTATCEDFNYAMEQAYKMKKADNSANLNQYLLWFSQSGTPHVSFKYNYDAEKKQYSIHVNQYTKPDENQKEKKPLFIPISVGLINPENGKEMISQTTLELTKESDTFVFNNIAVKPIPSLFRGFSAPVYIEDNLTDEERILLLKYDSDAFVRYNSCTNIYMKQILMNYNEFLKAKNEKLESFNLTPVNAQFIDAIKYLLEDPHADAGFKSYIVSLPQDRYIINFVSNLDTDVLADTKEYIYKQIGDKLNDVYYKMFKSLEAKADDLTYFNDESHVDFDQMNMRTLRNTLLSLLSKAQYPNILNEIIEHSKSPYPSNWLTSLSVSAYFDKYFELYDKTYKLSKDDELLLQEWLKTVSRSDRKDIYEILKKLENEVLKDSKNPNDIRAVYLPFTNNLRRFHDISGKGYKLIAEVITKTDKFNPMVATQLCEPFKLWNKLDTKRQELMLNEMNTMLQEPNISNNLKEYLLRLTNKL

Paired box protein Pax-8 = Paired box protein Pax-8 (Homo sapiens, UniProt Q06710); test: inhibitors of PAX8-driven TPO luciferase reporter, dose response, RMG-I cells, cherry-pick (AID 687027); assay type: functional, cell-based;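 note: luciferase reporter driven by Pax8 target thyroperoxidase promoter measured by SteadyGlo luminescence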
Chain of Paired box protein Pax-8 (Q06710 whole entry): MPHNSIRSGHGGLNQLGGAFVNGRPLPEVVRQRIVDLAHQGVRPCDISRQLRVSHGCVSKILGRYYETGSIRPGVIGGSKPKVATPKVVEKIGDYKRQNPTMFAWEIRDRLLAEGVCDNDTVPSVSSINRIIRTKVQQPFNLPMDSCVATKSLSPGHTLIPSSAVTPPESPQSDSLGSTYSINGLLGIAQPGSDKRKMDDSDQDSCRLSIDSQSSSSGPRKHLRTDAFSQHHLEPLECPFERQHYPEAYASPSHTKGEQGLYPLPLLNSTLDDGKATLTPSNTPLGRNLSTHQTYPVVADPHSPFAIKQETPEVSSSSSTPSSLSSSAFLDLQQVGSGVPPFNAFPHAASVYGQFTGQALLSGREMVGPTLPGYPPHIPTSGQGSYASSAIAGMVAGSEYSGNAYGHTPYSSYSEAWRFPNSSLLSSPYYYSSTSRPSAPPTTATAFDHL

[18] = Luminescent dose response cell-based high throughput screening assay for inhibitors of the Janus kinase 2 mutant JAK2V617F. [Related pubchem assays: 1446 (Primary screen.), 1521 (Confirmation assay.), 1486 (Counter screen.)]; assay type: functional
Phosphomannomutase 2 = molecular target: T6, Phosphomannomutase 2 (Homo sapiens, UniProt O15305); test: Counter screen SAR assay for PMM2 inhibitors via a fluorescence intensity assay. [Related pubchem assays (depositor defined):AID1545, AID1574]
T6 sequence (O15305 whole entry): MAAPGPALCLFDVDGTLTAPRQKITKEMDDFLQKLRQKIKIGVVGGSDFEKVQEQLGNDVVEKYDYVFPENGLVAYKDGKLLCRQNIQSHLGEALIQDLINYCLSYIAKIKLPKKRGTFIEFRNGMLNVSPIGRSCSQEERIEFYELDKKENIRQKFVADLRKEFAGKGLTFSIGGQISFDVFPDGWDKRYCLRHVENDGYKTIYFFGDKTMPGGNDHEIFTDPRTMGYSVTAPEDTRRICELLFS

[19] = molecular target: T7, Alkaline phosphatase, tissue-nonspecific isozyme (Homo sapiens, UniProt P05186); test: human TNAP enzyme inhibitors, SAR follow-up, biochemical, luminescent, dose response (AID 1056)
T7 sequence (P05186 whole entry): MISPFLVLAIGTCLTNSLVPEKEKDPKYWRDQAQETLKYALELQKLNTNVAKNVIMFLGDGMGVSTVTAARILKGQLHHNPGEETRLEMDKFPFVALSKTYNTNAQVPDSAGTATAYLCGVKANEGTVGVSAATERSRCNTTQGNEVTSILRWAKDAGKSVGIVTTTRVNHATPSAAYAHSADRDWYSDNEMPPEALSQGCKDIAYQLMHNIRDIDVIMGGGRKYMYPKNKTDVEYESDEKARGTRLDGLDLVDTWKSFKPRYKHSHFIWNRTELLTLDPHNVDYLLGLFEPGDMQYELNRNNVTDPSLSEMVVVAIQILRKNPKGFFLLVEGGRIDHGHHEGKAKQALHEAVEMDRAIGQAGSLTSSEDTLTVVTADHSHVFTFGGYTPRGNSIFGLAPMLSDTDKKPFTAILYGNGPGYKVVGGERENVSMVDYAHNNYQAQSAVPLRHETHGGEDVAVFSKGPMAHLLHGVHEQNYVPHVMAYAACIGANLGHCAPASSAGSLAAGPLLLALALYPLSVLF

[20] = molecular target: T8, Mannose-6-phosphate isomerase (Homo sapiens, UniProt P34949); test: PMI enzyme inhibitors, confirmation, biochemical, fluorescence intensity (AID 1535)
T8 sequence (P34949 whole entry): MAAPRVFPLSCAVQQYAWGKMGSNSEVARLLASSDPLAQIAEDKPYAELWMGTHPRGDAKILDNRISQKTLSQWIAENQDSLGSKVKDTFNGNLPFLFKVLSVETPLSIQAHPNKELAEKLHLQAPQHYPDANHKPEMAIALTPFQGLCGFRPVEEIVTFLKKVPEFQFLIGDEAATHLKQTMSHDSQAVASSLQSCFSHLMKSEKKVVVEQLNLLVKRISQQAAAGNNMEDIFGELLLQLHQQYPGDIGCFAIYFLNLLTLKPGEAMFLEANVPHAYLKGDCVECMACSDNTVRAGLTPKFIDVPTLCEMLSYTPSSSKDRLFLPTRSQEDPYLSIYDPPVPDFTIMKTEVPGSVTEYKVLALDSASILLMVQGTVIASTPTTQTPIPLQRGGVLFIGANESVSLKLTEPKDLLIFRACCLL

[21] = molecular target: Phosphoethanolamine/phosphocholine phosphatase (Homo sapiens, UniProt Q8TCT1); test: SAR assay for compounds that inhibit PHOSPHO1. [Related pubchem assays (depositor defined):AID1545, AID1565, AID1574]
Chain of Phosphoethanolamine/phosphocholine phosphatase (Q8TCT1 whole entry): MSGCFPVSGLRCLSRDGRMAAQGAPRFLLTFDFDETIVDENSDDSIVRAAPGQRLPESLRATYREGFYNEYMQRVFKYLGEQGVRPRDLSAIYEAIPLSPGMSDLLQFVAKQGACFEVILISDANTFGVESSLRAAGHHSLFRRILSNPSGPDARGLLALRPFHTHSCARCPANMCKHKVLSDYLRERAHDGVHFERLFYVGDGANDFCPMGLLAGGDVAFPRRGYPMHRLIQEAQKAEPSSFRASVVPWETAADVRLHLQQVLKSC

For CCOC(=O)c1cc(C#N)c(Oc2ccccc2)nc1-c1ccccc1, the IC50 [1] was 1.69 µM (active).

For Cc1ccc(C(=O)N2CCN(C3c4cccc5cccc(c45)C3NS(=O)(=O)c3ccccc3)CC2)cc1 (stereo not given), the EC50 [2] was 3.68 µM (active), the IC50 [3] was > 69.5 µM (inactive) and the IC50 [4] was > 69.5 µM (inactive).

In the case of O=C(NCCSCc1ccccc1)c1ccc(C2SCC(=O)N2Cc2ccccc2)cc1 (stereo not given), the IC50 [5] is reported as > 100 µM (inactive), the IC50 [6] is reported as 37.5 µM (active) and the IC50 (Prothrombin) is reported as 50.5 µM (active). The IC50 [7] was 4.77 µM (not active), the IC50 [1] was 1.49 µM (active) and the IC50 [8] was 11 µM (active). For the same compound, the IC50 [9] was 19.1 µM (active).

With CN(C)CCCNc1cc(C(C)(C)C)nc2c(-c3ccccc3)cnn12 the EC50 [10] was 4.96 µM (active), the IC50 [11] was > 20 µM (inactive) and the IC50 (cells) was 19.8 µM (active). The AC50 [12] was 15.5 µM (active), the EC50 [13] was 0.574 µM (active) and the AC50 [14] was 2.53 µM (active). The AC50 (INS1) was 13.8 µM (active), the CC50 [15] was 24.5 µM (active) and the CC50 [16] was > 20 µM (active). The CC50 [17] was > 20 µM (active).

With CCCOc1ccc(/C=C2/C(=O)ON=C2C)cc1Cl the EC50 [2] was > 32 µM (inactive).

For O=C(Nc1cccc(NC(=O)c2cccs2)c1)c1ccc([N+](=O)[O-])o1, the IC50 (Aminopeptidase N) was 49.8 µM (active), the EC50 [10] was > 60 µM (not active) and the IC50 (cells) was 4.05 µM (active). The EC50 [13] was 0.104 µM (active), the CC50 [15] was 7.45 µM (active) and the CC50 [16] was 11 µM (active). The AC50 (Paired box protein Pax-8) was 4.04 µM (active), the CC50 [17] was 11.9 µM (active) and the IC50 [18] was 1.57 µM (active).

For O=c1c2ccccc2sn1-c1ccc(Cl)c(S(=O)(=O)N2CCOCC2)c1, the IC50 (Phosphomannomutase 2) was 55.3 µM (active), the IC50 [19] was > 100 µM (inactive) and the IC50 [20] was 8.58 µM (active). For the same compound, the IC50 [21] was 1.07 µM (inactive).
